Each molecule was assayed against T1, RORα (Homo sapiens, UniProt P35398) (assay: Transcriptional activity of RORα, RORE-tk-Luc reporter in CV-1 cells (Experimental Example 1)). Conditions: JC1 compounds 100 μM, 24 hours; luciferase activity standardized by β-gal; versus control treated only with solvent.
T1 construct: expressed in transfected cells; host or cells: CV-1 cells (ATCC CCL-70)
T1 sequence (P35398 1-523): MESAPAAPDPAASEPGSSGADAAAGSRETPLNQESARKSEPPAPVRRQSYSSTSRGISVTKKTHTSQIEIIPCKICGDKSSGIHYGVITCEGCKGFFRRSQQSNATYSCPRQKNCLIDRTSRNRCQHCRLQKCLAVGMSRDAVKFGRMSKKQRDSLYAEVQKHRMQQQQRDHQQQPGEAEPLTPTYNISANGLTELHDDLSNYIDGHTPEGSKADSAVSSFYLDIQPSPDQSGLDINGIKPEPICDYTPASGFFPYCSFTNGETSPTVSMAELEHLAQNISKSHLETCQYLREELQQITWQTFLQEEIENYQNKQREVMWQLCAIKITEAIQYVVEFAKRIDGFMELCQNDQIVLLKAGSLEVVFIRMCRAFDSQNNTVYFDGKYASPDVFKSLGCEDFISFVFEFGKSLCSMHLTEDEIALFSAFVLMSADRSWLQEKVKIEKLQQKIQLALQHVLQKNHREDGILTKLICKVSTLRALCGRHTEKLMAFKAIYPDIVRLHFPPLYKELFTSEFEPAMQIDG
Format: cell-based
Method: CV-1 cells (CCL-70) were purchased from American Type Culture Collection (ATCC). The CV-1 cells (4×10^4 cells/well) were seeded on a 24-well culture plate and cultured overnight in a Dulbecco's Modified Eagle's Medium (DMEM) containing 10% fetal bovine serum (FBS). The CV-1 cells were maintained at 37° C. in a humidification thermostat containing 5% CO2 and 95% air. After culturing, the cells were transformed with RORE-tk-Luc reporter plasmid (100 ng) and ROR expression vector (5 ng) using calcium phosphate. […]

| Fold Activation | SMILES |
| --- | --- |
| 1.6 | CNC(=S)NCc1ccc([N+](=O)[O-])cc1 [Compound 12, 1-(4-nitro-benzyl)-3-methyl-thiourea] |
| 3.9 | CNC(=S)NCc1ccc(C)cc1 [Compound 14, 1-(4-methyl-benzyl)-3-methyl-thiourea] |
| 3.4 | CNC(=S)NCc1ccc(OC)cc1 [Compound 4, 1-(4-methoxy-benzyl)-3-methyl-thiourea] |
| 1.5 | CNC(=S)NCc1ccc(Oc2ccc(F)cc2)cc1 [Compound 52, 1-[4-(4-fluoro-phenoxy)-benzyl]-3-methyl-thiourea] |
| 0.6 | CNC(=S)NCc1ccc(Cl)cc1Cl [Compound 21, 1-(2,4-dichloro-benzyl)-3-methyl-thiourea] |
| 1.9 | CNC(=S)NCc1ccc(OC)c(O)c1 [Compound 25, 1-(3-hydroxy-4-methoxy-benzyl)-3-methyl-thiourea] |
| 1.2 | CCOc1cc(C=Cc2ccccc2)ccc1CNC(=S)NC [Compound 47, 1-(2-ethoxy-4-styryl-benzyl)-3-methyl-thiourea] |
| 1.5 | CNC(=S)NCc1cccc(OC)c1OC [Compound 15, 1-(2,3-dimethoxy-benzyl)-3-methyl-thiourea] |
| 0.7 | CNC(=S)NCc1ccccc1C [Compound 7, 1-(2-methyl-benzyl)-3-methyl-thiourea] |
| 2.1 | CNC(=S)NCc1ccccc1[N+](=O)[O-] [Compound 18, 1-(2-nitro-benzyl)-3-methyl-thiourea] |
| 1.1 | CNC(=S)NCc1cccc(C)c1 [Compound 6, 1-(3-methyl-benzyl)-3-methyl-thiourea] |
| 1.4 | CNC(=S)NCc1ccc(Br)cc1 [Compound 2, 1-(4-bromo-benzyl)-3-methyl-thiourea] |
| 0.9 | CNC(=S)NCc1ccc(F)cc1F [Compound 32, 1-(2,4-difluoro-benzyl)-3-methyl-thiourea] |
| 2.5 | CNC(=S)NCc1ccc(F)cc1 [Compound 30, 1-(4-fluoro-benzyl)-3-methyl-thiourea] |
| 1.1 | CNC(=S)NCc1cccc(F)c1 [Compound 29, 1-(3-fluoro-benzyl)-3-methyl-thiourea] |
| 2.1 | CNC(=S)NCc1ccc(Oc2ccc(OC)cc2)cc1 [Compound 53, 1-[4-(4-methoxy-phenoxy)-benzyl]-3-methyl-thiourea] |
| 2.6 | CNC(=S)NCc1ccc(Cl)cc1 [Compound 3, 1-(4-chloro-benzyl)-3-methyl-thiourea] |
| 1.3 | CNC(=S)NCc1ccc(N(C)C)cc1 [Compound 10, 1-(4-dimethylamino-benzyl)-3-methyl-thiourea] |
| 2.3 | CNC(=S)NCc1ccc(C(F)(F)F)cc1 [Compound 11, 1-(4-trifluoromethyl-benzyl)-3-methyl-thiourea] |
| 1.1 | CNC(=S)NCc1ccc(OC)cc1OC [Compound 5, 1-(2,4-dimethoxy-benzyl)-3-methyl-thiourea] |

| Fold Activation | SMILES |
| --- | --- |
| 0.7 | CNC(=S)NCc1cccc(Cl)c1 [Compound 28, 1-(3-chloro-benzyl)-3-methyl-thiourea] |
| 0.6 | CNC(=S)NCc1ccc(O)c(O)c1 [Compound 22, 1-(3,4-dihydroxy-benzyl)-3-methyl-thiourea] |
| 1.0 | CNC(=S)NCc1ccc(Cl)c(Cl)c1 [Compound 27, 1-(3,4-dichloro-benzyl)-3-methyl-thiourea] |
| 1.0 | CNC(=S)NCc1cc(OC)cc(OC)c1 [Compound 20, 1-(3,5-dimethoxy-benzyl)-3-methyl-thiourea] |
| 0.7 | CNC(=S)N[C@H](C)c1ccc(OC)cc1 [Compound 35, R-(+)-1-[1-(4-methoxy-phenyl)-ethyl]-3-methyl-thiourea] |
| 0.2 | CNC(=S)NCc1ccc(-c2ccccc2)cc1 [Compound 24, 1-(4-phenyl-benzyl)-3-methyl-thiourea] |
| 1.4 | CCOc1ccccc1CNC(=S)NC [Compound 16, 1-(2-ethoxy-benzyl)-3-methyl-thiourea] |
| 0.8 | CNC(=S)NCc1ccc(F)c(F)c1 [Compound 31, 1-(3,4-difluoro-benzyl)-3-methyl-thiourea] |
| 3.4 | CNC(=S)NCc1ccccc1Br [Compound 1, 1-(2-bromo-benzyl)-3-methyl-thiourea] |
| 1.8 | C=CCOc1ccccc1CNC(=S)NC [Compound 39, 1-(2-allyloxy-benzyl)-3-methyl-thiourea] |
| 0.8 | CNC(=S)NCc1ccccc1Cl [Compound 34, 1-(2-chloro-benzyl)-3-methyl-thiourea] |
| 2.9 | CNC(=S)NCc1ccc(OC)cc1OC [Compound 23, 1-(2,4-dimethoxy-benzyl)-3-methyl-thiourea] |
| 2.2 | CNC(=S)NCc1cc(OC)c(OC)c(OC)c1 [Compound 19, 1-(3,4,5-trimethoxy-benzyl)-3-methyl-thiourea] |
| 0.9 | CNC(=S)NCc1ccc(C(C)(C)C)cc1 [Compound 13, 1-(4-t-butyl-benzyl)-3-methyl-thiourea] |
| 0.7 | CNC(=S)NCc1cccc(Cl)c1Cl [Compound 33, 1-(2,3-dichloro-benzyl)-3-methyl-thiourea] |
| 1.4 | CNC(=S)NCc1ccc(O)c(OC)c1 [Compound 9, 1-(4-hydroxy-3-methoxy-benzyl)-3-methyl-thiourea] |
| 2.5 | CNC(=S)NCc1ccc(OC)c(OCc2ccccc2)c1 [Compound 41, 1-(3-benzyloxy-4-methoxy-benzyl)-3-methyl-thiourea] |
| 1.3 | CNC(=S)NCc1ccccc1Oc1ccccc1 [Compound 51, 1-methyl-3-(2-phenoxy-benzyl)-thiourea] |
| 0.9 | CNC(=S)NCc1cccc([N+](=O)[O-])c1 [Compound 17, 1-(3-nitro-benzyl)-3-methyl-thiourea] |

| SMILES | Fold Activation |
| --- | --- |
| CCOc1cc(-c2ccccc2)ccc1CNC(=S)NC [Compound 44, 1-(3-ethoxy-biphenyl-4-methyl)-3-methyl-thiourea] | 1.2 |
| CCOc1cc(-c2ccc(C(C)(C)C)cc2)ccc1CNC(N)=S [Compound 45, (4′-tert-butyl-3-ethoxy-biphenyl-4-methyl)-thiourea] | 1.0 |
| CNC(=S)N[C@@H](C)c1ccc(OC)cc1 [Compound 36, S-(−)-1-[1-(4-methoxy-phenyl)-ethyl]-3-methyl-thiourea] | 0.6 |
| CCOc1cc(-c2ccc(C(F)(F)F)cc2)ccc1CNC(=S)NC [Compound 48, 1-(3-ethoxy-4′-trifluoromethyl-biphenyl-4-methyl)-3-methyl-thiourea] | 1.0 |
| CNC(=S)NCc1ccc2ccccc2c1 [Compound 43, 1-methyl-3-naphthalene-2-methyl-thiourea] | 0.7 |
| CNC(=S)NCc1ccc2c(c1)OCO2 [Compound 8, 1-(benzo[1,3]dioxyl-5-methyl)-3-methyl-thiourea] | 1.7 |

— patent US10407388B2, “Thiourea derivatives as activators of RORα and pharmaceutical composition containing same” (SEOUL NATIONAL UNIVERSITY R & DB FOUNDATION, priority 2011, dated 2019)
